Assay results published in patent publication US20060106014A1, “Methods for treating diabetes” (priority 2004, published 2006).

Tests used:
5-lipoxygenase = biological target: T1, 5-lipoxygenase (Homo sapiens, UniProt P09917); assay: 5-Lipoxygenase Enzyme Assay (colorimetric, ferric oxidation of xylenol orange); format: biochemical; set-up: purchased Cayman 60402; conditions: read-out: in vitro IC50 value in a 5-LO enzyme assay
T1 sequence (P09917 1-674): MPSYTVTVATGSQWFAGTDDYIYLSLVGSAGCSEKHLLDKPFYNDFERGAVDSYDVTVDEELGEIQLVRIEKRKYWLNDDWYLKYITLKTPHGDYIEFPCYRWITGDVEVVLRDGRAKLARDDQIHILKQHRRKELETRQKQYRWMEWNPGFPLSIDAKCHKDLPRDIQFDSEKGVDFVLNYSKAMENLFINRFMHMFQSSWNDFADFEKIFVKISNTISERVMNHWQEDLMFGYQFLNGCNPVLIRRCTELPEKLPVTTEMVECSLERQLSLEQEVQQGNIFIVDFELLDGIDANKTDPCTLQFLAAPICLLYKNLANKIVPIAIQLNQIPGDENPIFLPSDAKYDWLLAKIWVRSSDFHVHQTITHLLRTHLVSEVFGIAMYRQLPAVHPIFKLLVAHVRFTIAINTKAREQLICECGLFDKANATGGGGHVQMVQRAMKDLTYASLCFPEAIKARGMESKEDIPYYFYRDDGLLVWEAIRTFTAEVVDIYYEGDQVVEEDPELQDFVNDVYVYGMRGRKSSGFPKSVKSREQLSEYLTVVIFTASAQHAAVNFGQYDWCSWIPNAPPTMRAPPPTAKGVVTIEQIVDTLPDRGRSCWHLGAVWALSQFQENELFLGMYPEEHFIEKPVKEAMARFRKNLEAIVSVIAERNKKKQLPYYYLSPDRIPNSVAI
Protocol: This procedure was used for measuring the enzymatic activity of human recombinant 5-lipoxygenase using a colorimetric method based on the ferric oxidation of xylenol orange.
(§1) The test compound and/or vehicle was added to 0.5 μL 5-lipoxygenase in 50 mM Tris-HCl buffer, pH 7.4. The reaction was initiated by addition of 70 μM arachidonic acid in Tris-HCl buffer, pH 7.4, and terminated after a 10 minute incubation at room temperature by addition of FOX reagent (25 mM sulphuric acid, 100 μM xylenol orange, 100 μM iron (II) sulphate, methanol:water 9:1). The yellow color of acidified xylenol orange was converted to a blue color by the lipid hydroperoxide-mediated oxidation of Fe^2+ ions and the interaction of the resulting Fe^3+ ions with the dye. The complex was allowed to form during a 1 hour incubation at room temperature with shaking. Absorbance of the Fe^3+ complex was then measured at 620 nm using a spectrophotometer. Negative controls contained enzyme during the incubation step but substrate was not added until after the FOX reagent.

[1] = biological target: T2, porcine leukocyte 12/15-lipoxygenase (Sus scrofa, UniProt P16469); assay: 12/15-Lipoxygenase Enzyme Assay (colorimetric, ferric oxidation of xylenol orange); format: biochemical; conditions: read-out: in vitro IC50 value in a 12/15-LO enzyme assay
T2 construct: purchased Cayman 60300
T2 sequence (P16469 1-663): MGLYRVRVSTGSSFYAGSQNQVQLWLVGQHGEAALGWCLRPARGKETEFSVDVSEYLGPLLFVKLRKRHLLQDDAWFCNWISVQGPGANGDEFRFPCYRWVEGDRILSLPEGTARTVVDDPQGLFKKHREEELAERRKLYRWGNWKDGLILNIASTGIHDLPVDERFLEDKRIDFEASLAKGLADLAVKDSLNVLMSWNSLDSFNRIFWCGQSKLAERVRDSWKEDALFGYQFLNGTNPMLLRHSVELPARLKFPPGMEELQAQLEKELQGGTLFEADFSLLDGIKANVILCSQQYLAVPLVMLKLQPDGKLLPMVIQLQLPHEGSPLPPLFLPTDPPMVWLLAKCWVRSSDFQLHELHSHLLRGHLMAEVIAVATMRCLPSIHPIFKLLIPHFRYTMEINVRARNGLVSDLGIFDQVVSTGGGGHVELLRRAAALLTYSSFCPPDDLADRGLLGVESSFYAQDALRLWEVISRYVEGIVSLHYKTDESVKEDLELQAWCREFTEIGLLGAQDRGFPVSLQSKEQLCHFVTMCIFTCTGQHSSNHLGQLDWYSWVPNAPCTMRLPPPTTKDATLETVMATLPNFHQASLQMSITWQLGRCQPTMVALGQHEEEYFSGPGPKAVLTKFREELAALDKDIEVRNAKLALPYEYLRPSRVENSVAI
Protocol: This procedure was used for measuring the enzymatic activity of porcine leukocyte 12/15-lipoxygenase using a colorimetric method based on the ferric oxidation of xylenol orange.
as §1, with “vehicle were” for “vehicle was”, “to 1.3” for “to 0.5”, “μL 12/15-lipoxygenase” for “μL 5-lipoxygenase”, “spectrophotometer.” for “spectrophotometer. Negative controls contained enzyme during the incubation step but substrate was not added until after the FOX reagent.”
Negative controls contained enzyme during the incubation step but substrate was not added until after the FOX reagent.

Row | Structure (SMILES) | IC50 (5-lipoxygenase) [µM] | IC50 [1] [µM]
1 | CC(=O)Nc1ccc(C=Cc2ccc(O)c(O)c2)cc1 [N-{4-[2-(3,4-dihydroxy-phenyl)-vinyl]-phenyl}acetamide] | < 5 | < 5
2 | CC(C)=CCc1cc(C=Cc2ccc(N(C)C)cc2)cc(O)c1O [5-(4-(dimethylamino)styryl)-3-(3-methylbut-2-enyl)benzene-1,2-diol] | < 5 | < 5
3 | COC(=O)c1ccc(C=Cc2ccc(O)c(O)c2CC=C(C)C)cc1 [4-{2-[3,4-dihydroxy-2-(3-methyl-but-2-enyl)-phenyl]-vinyl}benzoic acid methyl ester] | < 5 | < 5
4 | O=[N+]([O-])c1ccc(C=Cc2ccc(O)c(O)c2)cc1 [4-[2-(4-nitro-phenyl)-vinyl]-benzene-1,2-diol] | < 5 | < 5
5 | O=[N+]([O-])c1ccc(CCc2cc(O)c(O)c(O)c2)cc1 [5-(4-nitrophenethyl)benzene-1,2,3-triol] | < 5 | < 5
6 | COCOc1ccc(C=Cc2ccc(C(C)(C)C)cc2)cc1OCOC [4-[2-(4-tert-Butyl-phenyl)-vinyl]-1,2-bis-methoxymethoxy-benzene] | < 5 | < 5
7 | N#Cc1ccc(C=Cc2ccc(O)c(O)c2O)cc1 [4-[2-(2,3,4-trihydroxy-phenyl)-vinyl]-benzonitrile] | < 5 | < 5
8 | Oc1ccc(C=Cc2ccc(Br)cc2)cc1O [4-[2-(4-bromo-phenyl)-vinyl]-benzene-1,2-diol] | < 5 | < 5
9 | O=S(=O)(c1ccc(C=Cc2ccc(O)c(O)c2)cc1)N1CCCCC1 [4-{2-[4-(piperidine-1-sulfonyl)-phenyl]-vinyl}benzene-1,2-diol] | < 5 | < 5
10 | Oc1ccc(C=Cc2ccc(O)c(O)c2)c(O)c1 [4-(2,4-dihydroxystyryl)benzene-1,2-diol] | < 5 | < 5
11 | N#Cc1ccc(CCc2cc(O)c(O)c(O)c2)cc1 [4-(3,4,5-trihydroxyphenethyl)benzonitrile] | < 5 | < 5
12 | COCOc1ccc(C=Cc2ccc(C(F)(F)F)cc2)cc1OCOC [1,2-bis-methoxymethoxy-4-[2-(4-trifluoromethyl-phenyl)-vinyl]-benzene] | < 5 | < 5
13 | CNc1ccc(C=Cc2cc(O)c(O)c(CC=C(C)C)c2)cc1 [5-(4-(methylamino)styryl)-3-(3-methylbut-2-enyl)benzene-1,2-diol] | < 5 | < 5
14 | COC(=O)c1ccc(C=Cc2ccc(O)c(O)c2)cc1 [4-[2-(3,4-dihydroxy-phenyl)-vinyl]-benzoic acid methyl ester] | < 5 | < 5
15 | CS(=O)(=O)Nc1ccc(C=Cc2ccc(O)c(O)c2)cc1 [N-{4-[2-(3,4-dihydroxy-phenyl)-vinyl]-phenyl}methanesulfonamide] | < 5 | < 5

Now from value to molecule:

Row | IC50 (5-lipoxygenase) [µM] | IC50 [1] [µM] | Structure (SMILES)
16 | < 5 | < 5 | Cc1c(C)c2c(c(Cl)c1O)CCC(C)(C)O2 [5-chloro-2,2,7,8-tetramethylchroman-6-ol]
17 | < 5 | < 5 | Cc1c(C)c2c(c(-c3ccco3)c1O)CCC(C)(C)O2 [5-(furan-2-yl)-2,2,7,8-tetramethylchroman-6-ol]
18 | < 5 | < 5 | Cc1c(O)c(C)c2c(c1I)OC(C)(C)CC2 [8-iodo-2,2,5,7-tetramethylchroman-6-ol]
19 | < 5 | < 5 | C=CCSCc1c(O)c(C)c(C)c2c1CCC(C)(C)O2 [5-allylsulfanylmethyl-2,2,7,8-tetramethyl-chroman-6-ol]
20 | < 5 | < 5 | Cc1c(C)c2c(c(C)c1O)CCC(C)(C=Cc1ccccc1)O2 (stereo not drawn) [2,5,7,8-tetramethyl-2-styrylchroman-6-ol]
21 | < 5 | < 5 | Cc1c(O)cc2c(c1C)OC(C)(CCCl)CC2 (stereo not drawn) [2-(2-chloro-ethyl)-2,7,8-trimethyl-chroman-6-ol]
22 | < 5 | < 5 | Cc1c(O)c(C)c2c(c1CCC(C)C)OC(C)(C)CC2 [8-isopentyl-2,2,5,7-tetramethylchroman-6-ol]
23 | < 5 | < 5 | Cc1c(O)c(C)c(C(F)(F)F)c2c1CCC(C)(C)O2 [2,2,5,7-tetramethyl-8-(trifluoromethyl)chroman-6-ol]
24 | < 5 | < 5 | Cc1c(C)c2c(c(C)c1O)CCC(C)(c1cc(F)c(O)c(F)c1)O2 (stereo not drawn) [2-(3,5-difluoro-4-hydroxyphenyl)-2,5,7,8-tetramethylchroman-6-ol]
25 | < 5 | < 5 | CC1(C)CCc2cc(O)c3cccc(O)c3c2O1 [2,2-dimethyl-3,4-dihydro-2H-benzo[h]chromene-6,10-diol]
26 | < 5 | < 5 | COc1c(O)c(C)c(C)c2c1CCC(C)(C)O2 [5-methoxy-2,2,7,8-tetramethylchroman-6-ol]
27 | < 5 | < 5 | Cc1c(O)c(CCC(C)C)c(C)c2c1CCC(C)(C)O2 [2,2,5,8-tetramethyl-7-(3-methyl-butyl)-chroman-6-ol]
28 | < 5 | < 5 | Cc1cc(C=Cc2ccc([N+](=O)[O-])cc2)cc(C)c1O [2,6-dimethyl-4-[2-(4-nitro-phenyl)-vinyl]-phenol]
29 | < 5 | < 5 | Cc1c(O)c(Br)c(C)c2c1CCC(C)(C)O2 [7-bromo-2,2,5,8-tetramethyl-chroman-6-ol]
30 | < 5 | < 5 | Cc1c(C)c2c(c(C)c1O)CCC(C)(c1cccs1)O2 (stereo not drawn) [2,5,7,8-tetramethyl-2-(thiophen-2-yl)chroman-6-ol]
